Results: ChEMBL document CHEMBL1201862, “PubChem BioAssay data set” (2004)
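Each compound was tested at five concentrations against cells in 96-well plates for 48 hours. The concentration for 50% growth inhibition is given as GI50.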 Activity calls are given as the source filed them. Cut-off read from the data, not from the text of the source: active = GI50 up to about 1.1 µM and inactive = higher.

Key:
Assay in all cases: NCI-60 cell line screen, 48 h
[1] = tested on: 786-0
[2] = tested on: BT-549
[3] = tested on: DU-145
[4] = tested on: EKVX
[5] = tested on: HOP-62
[6] = tested on: HOP-92
[7] = tested on: Hs-578T
[8] = tested on: MCF7
[9] = tested on: MDA-MB-435
[10] = tested on: MDA-N
[11] = tested on: OVCAR-8
[12] = tested on: PC-3
[13] = tested on: RPMI-8226
[14] = tested on: SF-295
[15] = tested on: SNB-75
[16] = tested on: T47D
[17] = tested on: HL-60
[18] = tested on: MDA-MB-231
[19] = tested on: OVCAR-5

| SMILES | GI50 [1] | GI50 [2] | GI50 [3] | GI50 [4] | GI50 [5] | GI50 [6] | GI50 [7] | GI50 [8] | GI50 [9] | GI50 [10] | GI50 [11] | GI50 [12] | GI50 [13] | GI50 [14] | GI50 [15] | GI50 [16] | GI50 [17] | GI50 [18] | GI50 [19] |
| --- | --- | --- | --- | --- | --- | --- | --- | --- | --- | --- | --- | --- | --- | --- | --- | --- | --- | --- | --- |
| O=[N+]([O-])c1ccc(-c2nc3cc([N+](=O)[O-])ccc3[nH]2)cc1 | 32.1 µM (inactive) | 31.2 µM (inactive) | 27.9 µM (inactive) | 39.3 µM (inactive) | 31.9 µM (inactive) | 19.6 µM (inactive) | 40.5 µM (inactive) | 31 µM (inactive) | 29.4 µM (inactive) | 33.2 µM (inactive) | 22.4 µM (inactive) | 16.4 µM (inactive) | 13.7 µM (inactive) | 20 µM (inactive) | 39.4 µM (inactive) | 15.5 µM (inactive) | – | – | – |
| C[C@]12CC[C@@H]3c4ccc(O)cc4CC[C@H]3[C@@H]1C/C(=C\c1ccncc1)C2=O | – | – | 12.1 µM (inactive) | 28.1 µM (inactive) | 20.3 µM (inactive) | 23.1 µM (inactive) | 14.2 µM (inactive) | 12 µM (inactive) | 4.46 µM (inactive) | 11.3 µM (inactive) | 18.5 µM (inactive) | 11.6 µM (inactive) | 8.53 µM (inactive) | 24.9 µM (inactive) | > 100 µM (inactive) | 27.2 µM (inactive) | 10.6 µM (inactive) | 41.4 µM (inactive) | 27.5 µM (inactive) |
| Cc1cc(C)c(S(=O)(=O)N(CCCCN)OCCCN)c(C)c1 | – | 19.1 µM (inactive) | 15.6 µM (inactive) | 16.4 µM (inactive) | – | 19 µM (inactive) | 16 µM (inactive) | 17.7 µM (inactive) | 16.6 µM (inactive) | 16.4 µM (inactive) | 17.4 µM (inactive) | 13.3 µM (inactive) | 8.04 µM (inactive) | 19.6 µM (inactive) | 13.5 µM (inactive) | 18.2 µM (inactive) | – | – | 19.5 µM (inactive) |
| O=[N+]([O-])c1cccc2nc3ccccc3c(NCCNCCO)c12 | 0.00348 µM (active) | 0.00542 µM (active) | 0.00288 µM (active) | 0.00853 µM (active) | 0.0169 µM (active) | 0.00365 µM (active) | 0.0251 µM (active) | 0.001 µM (active) | 0.011 µM (active) | – | 0.00733 µM (active) | 0.00245 µM (active) | 0.00383 µM (active) | 0.00425 µM (active) | 0.0188 µM (active) | 0.00819 µM (active) | 0.0177 µM (active) | 0.017 µM (active) | 0.0109 µM (active) |
| CCOC(=O)CCSS(=O)(=O)C(F)(F)F | > 100 µM (inactive) | > 100 µM (inactive) | > 100 µM (inactive) | > 100 µM (inactive) | > 100 µM (inactive) | > 100 µM (inactive) | – | > 100 µM (inactive) | > 100 µM (inactive) | > 100 µM (inactive) | > 100 µM (inactive) | > 100 µM (inactive) | > 100 µM (inactive) | > 100 µM (inactive) | > 100 µM (inactive) | > 100 µM (inactive) | > 100 µM (inactive) | – | > 100 µM (inactive) |
| O=C(NC(Cc1ccc(I)cc1)C(=O)O)c1ccc(I)cc1 (configuration not stated) | – | – | – | > 51.2 µM (inactive) | 72.3 µM (inactive) | 66.7 µM (inactive) | – | > 50.4 µM (inactive) | – | – | > 74.8 µM (inactive) | – | 40.3 µM (inactive) | > 100 µM (inactive) | 21.2 µM (inactive) | – | > 62.1 µM (inactive) | – | > 100 µM (inactive) |
| COc1ccccc1C1C(Cl)C(=O)N1n1cnc2ccccc2c1=O (configuration not stated) | > 100 µM (inactive) | – | – | > 100 µM (inactive) | > 100 µM (inactive) | – | – | – | – | – | > 100 µM (inactive) | – | > 100 µM (inactive) | > 100 µM (inactive) | 40.6 µM (inactive) | – | > 100 µM (inactive) | – | > 100 µM (inactive) |
| C=C(C)C(=O)[C@@]12C(=O)[C@@H](C)CC[C@H]1[C@H](C)C[C@@H]2C=C(C)C | 20.1 µM (inactive) | – | 38.4 µM (inactive) | 30.5 µM (inactive) | 34.4 µM (inactive) | 25.8 µM (inactive) | – | 23.9 µM (inactive) | 20.3 µM (inactive) | 24.1 µM (inactive) | 30.7 µM (inactive) | 24 µM (inactive) | 27.9 µM (inactive) | 33.9 µM (inactive) | 34.8 µM (inactive) | – | – | 21.9 µM (inactive) | 28.4 µM (inactive) |
| COc1ccc(/C=C2\CCNC2=O)cc1 | – | – | – | > 29.4 µM (inactive) | 40.6 µM (inactive) | > 100 µM (inactive) | – | > 100 µM (inactive) | – | – | > 100 µM (inactive) | – | > 100 µM (inactive) | > 100 µM (inactive) | > 47.1 µM (inactive) | – | > 100 µM (inactive) | – | > 100 µM (inactive) |
| Clc1ccc(C(SCc2ccccc2)SCc2ccccc2)cc1 | > 10 µM (inactive) | – | > 10 µM (inactive) | > 10 µM (inactive) | > 10 µM (inactive) | > 10 µM (inactive) | > 10 µM (inactive) | > 10 µM (inactive) | – | > 10 µM (inactive) | > 10 µM (inactive) | > 10 µM (inactive) | > 10 µM (inactive) | > 10 µM (inactive) | > 10 µM (inactive) | > 10 µM (inactive) | > 10 µM (inactive) | > 10 µM (inactive) | – |
| CC(NC(=O)C(C)NC(=O)C(N)CCP(C)(=O)O)C(=O)O (configuration not stated) | – | – | – | > 100 µM (inactive) | > 100 µM (inactive) | > 100 µM (inactive) | – | > 100 µM (inactive) | – | – | > 100 µM (inactive) | – | > 100 µM (inactive) | > 100 µM (inactive) | > 100 µM (inactive) | – | > 100 µM (inactive) | – | > 100 µM (inactive) |
| c1ccc(C(NC2=NCCO2)C2CC2)cc1 (configuration not stated) | > 100 µM (inactive) | – | > 100 µM (inactive) | > 100 µM (inactive) | > 100 µM (inactive) | > 100 µM (inactive) | > 100 µM (inactive) | > 100 µM (inactive) | 75.9 µM (inactive) | > 100 µM (inactive) | > 100 µM (inactive) | > 100 µM (inactive) | > 100 µM (inactive) | > 100 µM (inactive) | > 100 µM (inactive) | > 100 µM (inactive) | – | > 100 µM (inactive) | > 100 µM (inactive) |
| Cc1nc2c(sc(=S)n2-c2ccccc2)c(=O)[nH]1 | – | – | – | – | > 100 µM (inactive) | > 100 µM (inactive) | – | – | – | – | > 100 µM (inactive) | – | > 100 µM (inactive) | > 100 µM (inactive) | – | – | > 100 µM (inactive) | – | > 100 µM (inactive) |
| CCCCCCCCC(O)c1ccc(/C=C\C(O)CCCC(=O)O)s1 (configuration not stated) | > 100 µM (inactive) | – | – | > 100 µM (inactive) | – | > 100 µM (inactive) | – | – | – | – | > 100 µM (inactive) | – | > 100 µM (inactive) | > 100 µM (inactive) | > 100 µM (inactive) | – | > 100 µM (inactive) | – | > 100 µM (inactive) |
| O=c1c(-c2ccc(O)cc2)coc2cc(O)cc(O)c12 [GENISTEIN] | 43.2 µM (inactive) | 88.3 µM (inactive) | 92.5 µM (inactive) | 63.1 µM (inactive) | – | > 100 µM (inactive) | 65.2 µM (inactive) | > 100 µM (inactive) | > 100 µM (inactive) | > 100 µM (inactive) | > 100 µM (inactive) | > 100 µM (inactive) | 77.8 µM (inactive) | 55 µM (inactive) | – | > 100 µM (inactive) | 69.8 µM (inactive) | – | > 100 µM (inactive) |
